Reference: the METLIN SMRT retention time set (Domingo-Almenara et al. 2019)

Assay: gradient 5% acetonitrile 3 min, to 50% in 2 min, to 85% in 15 min, held 3 min, 100 µL/min
Conditions: column: Zorbax Extend-C18 2.1 x 50 mm; eluents: water / acetonitrile, 0.1% formic acid
Outline: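 Over 3 months, pure standards in mixtures of ~100 molecules were run by HPLC coupled to a quadrupole time-of-flight mass spectrometer in positive and negative ionization mode. The column was a Zorbax Extend-C18 (2.1 × 50 mm, 1.8 μm) at 100 μL/min, eluted with water and acetonitrile each holding 0.1% formic acid, with 40 μL dead and 900 μL dwell volumes. Retention time was determined from adduct peaks chosen by software and checked manually.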

| RP-LC retention time | SMILES |
| --- | --- |
| 588 s | O=C(NCc1ccncc1)C1CC(=O)N(CCc2c[nH]c3ccc(F)cc23)C1 (centres undefined) |
| 863 s | CC1(C)CC(=O)C2=C(C1)Nc1ccccc1N(CC(=O)NC1CCCC1)C2c1ccc(F)cc1 (centres undefined) |
| 940 s | O=C(Cc1cccs1)Nc1ccc(SCc2nnc(-c3ccccc3)o2)cc1 |
| 799 s | O=C(NCc1ccc2c(c1)OCO2)C1CC(=O)N(CCc2c[nH]c3ccc(Cl)cc23)C1 (centres undefined) |
| 691 s | Cc1cccc(-c2nnc(-c3nc(NCc4cccnc4)c4ccccc4n3)o2)c1 |
| 902 s | Cc1ccc(NC(=O)C2=C(Nc3ccc4c(c3)n(C)c(=O)n4C)c3ccccc3S2(=O)=O)cc1 |
| 897 s | COc1ccccc1NC(=O)CSc1nnc2c3cc(-c4ccc(F)cc4)nn3ccn12 |
| 649 s | O=C(c1ccoc1)N1CCCn2cc(-c3ccccc3F)nc21 |
| 1250 s | Cc1cc(NC(=O)c2nc(C(C)C)oc2C)ccc1Cl |
| 686 s | Cc1cccn2cc(-c3cccc(NS(=O)(=O)c4ccc(Cl)cc4)c3)nc12 |
| 714 s | CCCN1CCN(C(=O)C2=Cc3cc(-c4ccccc4)ccc3OC2)CC1 |
| 698 s | CCOC(=O)C1=C(CN(C)Cc2ccccc2)NC(=O)NC1c1ccc(Cl)cc1 (centres undefined) |
| 644 s | CC(C)n1nnc2cc(S(=O)(=O)N3CCCC(C(=O)N4CCN(c5ccccn5)CC4)C3)ccc21 (centres undefined) |
| 569 s | CC1(C(=O)NC2CCN(c3cc(N4CCOCC4)cnn3)C2)CCCCC1 (centres undefined) |
| 590 s | O=C(c1cnccn1)N1CCC(N2C(=O)C(O)C23CCCCC3)CC1 (centres undefined) |
| 812 s | COCCn1cc(C(=O)Nc2cccc(C(C)=O)c2)c2nn(-c3ccccc3)c(=O)c-2c1 |
| 903 s | COc1ccc(OC)c(NS(=O)(=O)c2cc(-c3nc(C)cs3)n(CC(=O)N3CCCC3)c2)c1 |
| 684 s | CCOC(=O)C1CCCN(C(=O)Cn2cnc(-c3cccs3)cc2=O)C1 (centres undefined) |
| 604 s | O=C(NCCCN1CCCC1)C1c2ccccc2CC(=O)N1Cc1ccccc1 (centres undefined) |
| 593 s | CCn1ccnc1N1CCN(C(=O)COc2ccc(Cl)cc2Cl)CC1 |
| 874 s | Cc1nc(-c2noc(-c3ccc(F)cc3)n2)cn1CC(=O)NC1CCc2ccccc21 (centres undefined) |
| 913 s | Cc1oc(C2CCN(S(=O)(=O)c3cccc(F)c3)CC2)nc1C(=O)N1CCCC1 |

| RP-LC retention time | SMILES |
| --- | --- |
| 702 s | COc1ccc(OC)c(CN2CCCC(OCc3noc(-c4ccoc4)n3)C2)c1 (centres undefined) |
| 818 s | COc1cccc(N2CCN(S(=O)(=O)c3nn(C)cc3C(=O)NC3CC3)CC2)c1 |
| 593 s | CCCCOCCCNCc1ccc2c(c1)n(C)c(=O)n2C |
| 651 s | O=C(NCCc1noc(C2CC2)n1)C1CCC1 |
| 749 s | COCCNC(=O)Cn1nc(-c2ccc(Cl)cc2)c2c(C)onc2c1=O |
| 922 s | COc1ccccc1CNS(=O)(=O)c1ccc(-c2c(C)noc2C)cc1 |
| 768 s | CCC(=O)N1CCc2cc(N3CC(C(=O)Nc4cc(C)ccc4F)CC3=O)ccc21 (centres undefined) |
| 846 s | Cc1c(C(=O)N2CCCCC2C)sc2ncn(CC(=O)N3CC(C)CC(C)C3)c(=O)c12 (centres undefined) |
| 1150 s | Cc1cccc(-c2noc(CN3N=NC4C(=O)N(c5ccc(C(C)C)cc5)C(=O)C43)n2)c1 (centres undefined) |
| 825 s | Cc1ccc(Nc2c(-c3nc(C)no3)cnc3nc(C)ccc23)c(C)c1 |
| 1010 s | COC(=O)c1cc2c(=O)n(-c3cc(Cl)cc(Cl)c3)ccc2nc1C |
| 695 s | COC(=O)c1cccc(NC(=O)CSc2nccc(N3CCN(c4ccccc4OC)CC3)n2)c1 |
| 637 s | COc1ccc(-c2cn3c(CCC(=O)NCc4ccco4)csc3n2)cc1 |
| 600 s | C=C(C)Cn1c(CNC(=O)c2ccccc2)nc2ccccc21 |
| 806 s | COc1ccccc1C1(CNS(=O)(=O)c2ccc(NC(=O)C(C)C)cc2)CCOCC1 |
| 1280 s | O=C(NCc1ccco1)c1c(O)c2cccnc2n(-c2ccc(F)cc2)c1=O |
| 686 s | CCS(=O)(=O)N1CCCC(c2nc(C(C)C)no2)CCNC(=O)CC1 (centres undefined) |
| 838 s | Cc1cc(C)cc(C(=O)Nc2cc(-c3cccnc3)no2)c1 |
| 590 s | COCCNC(=O)CCc1c(-c2ccc(Cl)cc2)nc2ccccn12 |
| 845 s | CCOC(=O)N1CCC2(CC1)OC(=O)C(C)=C2C(=O)Nc1cccc(OC)c1 |
| 801 s | Cc1ccc(Nc2c(-c3cc(Br)ccc3F)nc3ccccn23)cc1 |
| 778 s | O=C(NC1CC1)c1ccc(OCC2CCCN2C(=O)c2cccc(F)c2)cc1 (centres undefined) |

| RP-LC retention time | SMILES |
| --- | --- |
| 751 s | CC(=O)N1CCc2cc(N3CC(C(=O)Nc4ccc(F)c(Cl)c4)CC3=O)ccc21 (centres undefined) |
| 892 s | Cc1cccc(CN2N=C(C(=O)N3CCCC3)S(=O)(=O)c3ccccc32)c1 |
| 700 s | O=C(CSc1ncccn1)NCc1cc(-c2ccc(F)cc2)on1 |
| 618 s | CCNC(=O)c1cc(C(C)C)[nH]n1 |
| 775 s | COc1cccc(N2CCN(C(=O)Cn3ccc4c(SCc5ccccc5)nccc43)CC2)c1 |
| 831 s | Cc1noc(-c2ccc(OC3CN(C(=O)NCc4ccc(F)cc4)C3)cc2)n1 |
| 644 s | c1ccc(-c2noc(C3CCN(Cc4ccco4)C3)n2)cc1 (centres undefined) |
| 822 s | Cc1nncn1C1CCN(S(=O)(=O)c2ccc(CC(C)C)cc2)CC1 |
| 1320 s | Cc1cccc(N2CCN(c3ccc4cc(S(=O)(=O)N5CCCCC5)ccc4n3)CC2)c1C |
| 659 s | CN1CCC2(CC1)CN(C(=O)Nc1ccccc1)CC2c1nc(-c2ccccc2)no1 (centres undefined) |
| 911 s | Cc1ccc(NS(=O)(=O)c2cc3c(s2)CCN(C(=O)C2CCC2)C3)cc1F |
| 871 s | COc1ccc(-c2nnc(-c3ccccc3Cl)o2)cc1S(=O)(=O)N1CCOCC1 |
| 1250 s | CN(C)c1ccc(-c2noc(-c3nc(-c4ccccc4F)no3)n2)cc1 |
| 911 s | COC(=O)C1=CN(c2cccc(C)c2)c2cc(F)ccc2S1(=O)=O |
| 798 s | CCc1nc(OCC(=O)NCc2ccc(C)cc2)c2ccccc2n1 |
| 588 s | O=C(c1ccc2c(c1)OCO2)N1CCN(c2ncnc3c2CCC3)CC1 |
| 761 s | Cc1ccc2c(c1)C(=O)NC1(CCN(C(=O)NCc3ccc(F)cc3)CC1)N2C |
| 1040 s | Clc1ccc(Nc2c(-c3ccc(Cl)cc3)nc3cnccn23)cc1 |
| 704 s | O=C(NCc1ccc(Cl)cc1)C1CCc2nc(N3CCOCC3)ncc2C1 (centres undefined) |
| 1100 s | COc1ccc(NC(=O)c2cc(C)n3nc(-c4ccco4)cc3n2)c(OC)c1 |
| 746 s | CCn1ccc2c(cc(C(=O)Nc3cc(OC)ccc3OC)n2C)c1=O |
| 672 s | COCc1nc(C2CCN(C(=O)C3CCC3)C2)no1 (centres undefined) |

| RP-LC retention time | SMILES |
| --- | --- |
| 830 s | O=C(C1=CN(c2ccc3c(c2)OCCO3)c2ccccc2S1(=O)=O)N1CCCCC1 |
| 614 s | CCOc1ccc(-c2cc(=O)n(CC(=O)NCCn3ncccc3=O)cn2)cc1 |
| 1270 s | CCC(C)n1c(=O)c2ccccc2n(Cc2nc(-c3cccc(Cl)c3)no2)c1=O (centres undefined) |
| 788 s | CCn1cc(CCNC(=O)Nc2cccc(Cl)c2)c2cccnc21 |
| 745 s | Cc1ccccc1CNc1nc2ccncc2n(C(C)C)c1=O |
| 842 s | CCc1ccc(NC(=O)C2CCCN2S(=O)(=O)c2cc3c(cc2C)NC(=O)C(C)O3)cc1 (centres undefined) |
| 797 s | CCOC(=O)c1ccc(NC(=O)C2CCCN(c3nnc(C)c4c(C)n(-c5ccccc5)nc34)C2)cc1 (centres undefined) |
| 616 s | COCc1noc([C@@H]2CN(Cc3cn(C)c4ccccc34)C[C@H]2CO)n1 |
| 553 s | Cc1cc(NC(=O)CSc2nnc(CCc3nc4ccccc4[nH]3)o2)no1 |
| 699 s | Cc1cc(=O)n(CC(=O)Nc2cc(C)on2)c(N2CCc3ccccc3C2)n1 |
| 732 s | O=C1CN(C(=O)c2cccc(C(F)(F)F)c2)c2ccccc2N1 |
| 764 s | Cn1cc(CCNS(=O)(=O)c2ccccc2C(F)(F)F)c2cccnc21 |
| 891 s | C/C=C/C(=O)N1C(=O)OC[C@@H]1Cc1ccccc1 |
| 636 s | Cc1ccc(CN2CCCC(c3nc(C(C)C)no3)CCNC(=O)CC2)o1 (centres undefined) |
| 799 s | CC(C)NC(=O)N1CCCC1c1noc(COc2ccc(F)cc2)n1 (centres undefined) |
| 672 s | COc1ccc(-c2nc3cnccn3c2Nc2ccc3c(c2)OCO3)cc1OC |
| 712 s | CCOCCCNC(=O)Cn1c(=O)c2cccn2c2ccc(F)cc21 |
| 797 s | COc1ccc(Br)cc1CNC(=O)C1CCN(c2ccc3nnc(C)n3n2)CC1 |
| 769 s | Cc1ccc(C)c(NC(=O)N2CCC3(CC2)NC(=O)c2ccc(F)cc2N3C)c1 |
| 967 s | CCOc1ccc(N2CC(c3nc(-c4ccccc4F)no3)CC2=O)cc1 (centres undefined) |
| 726 s | O=C(Nc1cc(-c2ccccc2)nn1CCO)c1ccsc1 |
| 705 s | Cn1c(=O)c2ccn(CC(=O)Nc3cccc(C(F)(F)F)c3)c2n(C)c1=O |

| SMILES | RP-LC retention time |
| --- | --- |
| N#Cc1ccccc1CN1CC[C@@H]2CN(Cc3cccnc3)[C@@H]2C1 | 556 s |
